Results on ten molecules are retold here after patent US20060063913A1, “SSX-2 peptide analogs” (priority 2004, published 2006).

Experiment [1] deals with HLA-A*0201 (Homo sapiens, UniProt P04439, D140Y/D185E/D98H/E176V/E277Q/G131W/G231S/I119V/I121R/I166T/I218V/L300P/L318F/N151K/N90K/P208A/P217A/Q86G/Q94H/R138H/R169H/T345S). As to the kind of experiment: ED50 (M).
For experiment [2], the system named is T cells specific for the wild-type NY-ESO-1157-165 epitope. Nature of the experiment: Cross-reactivity and functional avidity of NY-ESO-1 157-165 analogs (IFN-gamma, T cells specific for the wild-type epitope). Particulars: IFN-gamma production ex vivo. The experiment is classed as cell-based, HHD transgenic mice.
The subject of experiment [3] is T cell lines specific for the native epitope (PRAME425-433). As to the kind of experiment: Cross-reactivity of PRAME 425-433 analogs: IFN-gamma secretion from T cell lines specific for the native epitope. Type of experiment: cell-based, HHD transgenic mice. As to conditions: analog peptide at approximately 0.3 μM. As to the method:
The analogs listed in FIGS. 26-28 were tested for various properties such as improved affinity and stability of binding, cross-reactivity with the native epitope, and immunogenicity as follows in Examples 40-48. […] The observed affinities of the analogs are reported as % binding (compared to the positive control) and ED50s. Stability of binding as half time of dissociation. Cross reactivity with the native epitope was assessed by using the analog peptides to stimulate IFG-gamma secretion from a T cell lines specific for the native epitope, essentially as described in Example 6. The data shown in FIGS. 26-28 were generated by stimulating with analog peptide at approximately 0.3 μM. […] In some cases the reported values are the average of two determinations.

Experiment [4] concerns the target T1, HLA-A*0201 on T2 cells (human).
T1 construct: Class I MHC stabilised on T2 cells by added peptide, detected with a fluorescent anti-A2 antibody; also called HLA-A2; MHC class I (A2 allele)
Nature of the experiment: T2 cell binding assay (flow cytometry). In general terms: Flow cytometry measures light scatter and fluorescence of single cells or particles in a stream.

Where a SMILES comes first, the peptide text is derived from it. Where no end group is shown, it is not given here. [ ]: non-standard residue; d: D form. Orn = NCCC[C@H](N)C(=O)O; Nva = CCC[C@H](N)C(=O)O

For orientation: EC50 means the concentration needed to bring the measured effect to its halfway point. Lower therefore signals a more potent agent. As to TLLQHLIGL [11 | Prame 425-433 (S425T)], the EC50 in experiment [1] was 1450 nM.
Same read-out and setting: then YLLQHLIGL [10 | Prame 425-433 (S425Y)], with 550 nM; and `CC[C@H](C)[C@H](NC(=O)[C@H](CC(C)C)NC(=O)[C@H](Cc1c[nH]cn1)NC(=O)[C@H](CCC(N)=O)NC(=O)[C@H](CC(C)C)NC(=O)[C@H](CC(C)C)NC(=O)[C@@H](N)CCCN)C(=O)NCC(=O)N[C@@H](CC(C)C)C(=O)O` [12 | Prame 425-433 (S425(Orn))] (H-[Orn]LLQHLIGL-OH; N-terminus and C-terminus assumed), with 2250 nM; and SMLQHLIGL [3 | Prame 425-433 (L426M)], with 988 nM.
The same measure, in the same setting: then `CCC[C@H](NC(=O)CNC(=O)[C@@H](NC(=O)[C@H](CC(C)C)NC(=O)[C@H](Cc1c[nH]cn1)NC(=O)[C@H](CCC(N)=O)NC(=O)[C@H](CC(C)C)NC(=O)[C@H](CC(C)C)NC(=O)[C@@H](N)CO)[C@@H](C)CC)C(=O)O` [18 | Prame 425-433 (L433(Nva))] (H-SLLQHLIG[Nva]-OH; N-terminus and C-terminus assumed), with 1660 nM; and FLLQHLIGL [9 | Prame 425-433 (S425F)], with 434 nM.
As for “NY-ESO-1157-166: 10-mer of the wild-type NY-ESO-1 sequence, residues 157-166 (SLLMWITQCF; UniProt P78358 157-166, looked up, fragment)”, the “Activity in the cross-reactivity/functional avidity assay relative to wild-type NY-ESO-1 157-165, in words” value in experiment [2] is “showed no immunological activity”.
Consider `CCC[C@H](NC(=O)[C@@H](N)CO)C(=O)N[C@@H](CC(C)C)C(=O)N[C@@H](CCC(N)=O)C(=O)N[C@@H](Cc1c[nH]cn1)C(=O)N[C@@H](CC(C)C)C(=O)N[C@H](C(=O)NCC(=O)N[C@@H](CC(C)C)C(=O)O)[C@@H](C)CC` [6 | Prame 425-433 (L426(Nva)), S(Nva)LQHLIGL] (H-S[Nva]LQHLIGL-OH; N-terminus and C-terminus assumed), for which, in experiment [1], the midpoint of the response, the EC50, lay at 1910 nM.
Regarding “Lys P1 analog: PRAME 425-433 analog with Lys for the Ser at the P1 position (KLLQHLIGL; UniProt P78395 425-433, looked up, variant S425K)”, in experiment [3], the “IFN-γ elicited, as percent of the native peptide” value was 40%.
With KVSEKIFYX (C-terminal amide) [SSX-2 41-49-NH2 (A42V)], in experiment [4], the binding result was “no binding”.
